# Test results taken from ChEMBL document CHEMBL1201862, “PubChem BioAssay data set” (2004).
#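 How tested: cells in 96-well plates exposed to compound for 48 hours at five concentrations. GI50 = concentration required for 50% inhibition of growth.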 The source made the active and inactive calls. Cut-off read from the data, not from the text of the source: active = GI50 up to about 1.1 µM and inactive = higher.
# Assays:
# Assay in all cases: NCI anticancer screen, dose series, 48 h
# K562 = test system: K562
# OVCAR-3 = test system: OVCAR-3
# MDA-N = test system: MDA-N
# UO-31 = test system: UO-31
# UACC-62 = test system: UACC-62
# IGROV-1 = test system: IGROV-1
# LOX IMVI = test system: LOX IMVI
# RPMI-8226 = test system: RPMI-8226
# HOP-62 = test system: HOP-62
# ACHN = test system: ACHN
# NCI-H522 = test system: NCI-H522
# KM12 = test system: KM12
# OVCAR-5 = test system: OVCAR-5
# SF-295 = test system: SF-295
# SK-OV-3 = test system: SK-OV-3
# SK-MEL-2 = test system: SK-MEL-2
# HOP-92 = test system: HOP-92
# HL-60 = test system: HL-60
# SK-MEL-5 = test system: SK-MEL-5
# CAKI-1 = test system: CAKI-1
# A549 = test system: A549
# OVCAR-4 = test system: OVCAR-4
# SF-268 = test system: SF-268
# T47D = test system: T47D
# 786-0 = test system: 786-0
# NCI-H226 = test system: NCI-H226
# Malme-3M = test system: Malme-3M
# A498 = test system: A498
# NCI-H460 = test system: NCI-H460
# PC-3 = test system: PC-3
# HCT-15 = test system: HCT-15
# SR = test system: SR
# CCRF-CEM = test system: CCRF-CEM
# RXF 393 = test system: RXF 393
# SK-MEL-28 = test system: SK-MEL-28
# SF-539 = test system: SF-539
# U-251 = test system: U-251
# UACC-257 = test system: UACC-257
# NCI-H23 = test system: NCI-H23
# NCI/ADR-RES = test system: NCI/ADR-RES
# HT-29 = test system: HT-29
# SW-620 = test system: SW-620
# MDA-MB-231 = test system: MDA-MB-231
# SNB-19 = test system: SNB-19
# MDA-MB-435 = test system: MDA-MB-435
# M14 = test system: M14
# Hs-578T = test system: Hs-578T
# MOLT-4 = test system: MOLT-4
# HCC 2998 = test system: HCC 2998
# OVCAR-8 = test system: OVCAR-8
# COLO 205 = test system: COLO 205
# EKVX = test system: EKVX
# TK-10 = test system: TK-10
# SNB-75 = test system: SNB-75
# SN12C = test system: SN12C
# DU-145 = test system: DU-145
# HCT-116 = test system: HCT-116
# MCF7 = test system: MCF7
# BT-549 = test system: BT-549
structure (smiles),measurement,setting,value
CCN(CC)CCOCCOCC1(c2ccc(Cl)c(Cl)c2)CCCCC1,GI50,K562,2.82 µM (inactive)
same,GI50,OVCAR-3,8.67 µM (inactive)
same,GI50,MDA-N,3.65 µM (inactive)
same,GI50,UO-31,5.12 µM (inactive)
same,GI50,UACC-62,8.87 µM (inactive)
same,GI50,IGROV-1,8.43 µM (inactive)
same,GI50,LOX IMVI,7.08 µM (inactive)
same,GI50,RPMI-8226,2.51 µM (inactive)
same,GI50,HOP-62,7.67 µM (inactive)
same,GI50,ACHN,15.2 µM (inactive)
same,GI50,NCI-H522,7.91 µM (inactive)
same,GI50,KM12,5.06 µM (inactive)
same,GI50,OVCAR-5,11.5 µM (inactive)
same,GI50,SF-295,5.83 µM (inactive)
same,GI50,SK-OV-3,11.6 µM (inactive)
same,GI50,SK-MEL-2,14.9 µM (inactive)
same,GI50,HOP-92,6.14 µM (inactive)
same,GI50,HL-60,5.82 µM (inactive)
same,GI50,SK-MEL-5,2.19 µM (inactive)
same,GI50,CAKI-1,10.1 µM (inactive)
same,GI50,A549,10.9 µM (inactive)
same,GI50,OVCAR-4,12.6 µM (inactive)
same,GI50,SF-268,11.8 µM (inactive)
same,GI50,T47D,3.48 µM (inactive)
same,GI50,786-0,3.28 µM (inactive)
same,GI50,NCI-H226,17.9 µM (inactive)
same,GI50,Malme-3M,5.33 µM (inactive)
same,GI50,A498,13.1 µM (inactive)
same,GI50,NCI-H460,3.39 µM (inactive)
same,GI50,PC-3,11.2 µM (inactive)
same,GI50,HCT-15,4.34 µM
same,GI50,SR,11 µM (inactive)
same,GI50,CCRF-CEM,2.99 µM (inactive)
same,GI50,RXF 393,4.26 µM (inactive)
same,GI50,SK-MEL-28,5.22 µM (inactive)
same,GI50,SF-539,11.2 µM (inactive)
same,GI50,U-251,9.25 µM (inactive)
same,GI50,UACC-257,2.88 µM (inactive)
same,GI50,NCI-H23,11 µM (inactive)
same,GI50,NCI/ADR-RES,11.4 µM (inactive)
same,GI50,HT-29,2.29 µM (inactive)
same,GI50,SW-620,5.61 µM (inactive)
same,GI50,MDA-MB-231,10.8 µM (inactive)
same,GI50,SNB-19,13.4 µM (inactive)
same,GI50,MDA-MB-435,4 µM (inactive)
same,GI50,M14,1.7 µM (inactive)
same,GI50,Hs-578T,2.96 µM (inactive)
same,GI50,MOLT-4,4.99 µM (inactive)
same,GI50,HCC 2998,4.07 µM (inactive)
same,GI50,OVCAR-8,13.8 µM (inactive)
same,GI50,COLO 205,4.41 µM (inactive)
same,GI50,EKVX,8.17 µM (inactive)
same,GI50,TK-10,9.38 µM (inactive)
same,GI50,SNB-75,7.64 µM (inactive)
same,GI50,SN12C,11.9 µM (inactive)
same,GI50,DU-145,8.71 µM (inactive)
same,GI50,HCT-116,5.82 µM (inactive)
same,GI50,MCF7,6.34 µM (inactive)
same,GI50,BT-549,12.7 µM (inactive)
O=C(N/N=C\C=C\c1ccc([N+](=O)[O-])o1)C(=O)N/N=C\C=C\c1ccc([N+](=O)[O-])o1,GI50,K562,> 100 µM (inactive)
same,GI50,OVCAR-3,24.1 µM (inactive)
same,GI50,MDA-N,> 100 µM (inactive)
same,GI50,UO-31,> 100 µM (inactive)
same,GI50,UACC-62,> 100 µM (inactive)
same,GI50,IGROV-1,78.2 µM (inactive)
same,GI50,LOX IMVI,4.94 µM (inactive)
same,GI50,RPMI-8226,28.4 µM (inactive)
same,GI50,HOP-62,82.2 µM (inactive)
same,GI50,ACHN,> 100 µM (inactive)
same,GI50,NCI-H522,> 100 µM (inactive)
same,GI50,KM12,> 100 µM (inactive)
same,GI50,OVCAR-5,> 100 µM (inactive)
same,GI50,SF-295,> 100 µM (inactive)
same,GI50,SK-OV-3,> 100 µM (inactive)
same,GI50,SK-MEL-2,> 100 µM (inactive)
same,GI50,HOP-92,> 100 µM (inactive)
same,GI50,HL-60,20 µM (inactive)
same,GI50,SK-MEL-5,> 100 µM (inactive)
same,GI50,CAKI-1,> 100 µM (inactive)
same,GI50,A549,> 100 µM (inactive)
same,GI50,OVCAR-4,34.9 µM (inactive)
same,GI50,SF-268,> 100 µM (inactive)
same,GI50,T47D,36.2 µM (inactive)
same,GI50,786-0,> 100 µM (inactive)
same,GI50,NCI-H226,> 100 µM (inactive)
same,GI50,Malme-3M,> 100 µM (inactive)
same,GI50,A498,> 100 µM (inactive)
same,GI50,NCI-H460,> 100 µM (inactive)
same,GI50,PC-3,> 100 µM (inactive)
same,GI50,HCT-15,81.7 µM
same,GI50,SR,35.5 µM (inactive)
same,GI50,CCRF-CEM,1.36 µM (inactive)
same,GI50,RXF 393,> 100 µM (inactive)
same,GI50,SK-MEL-28,> 100 µM (inactive)
same,GI50,SF-539,3.19 µM (inactive)
same,GI50,U-251,> 100 µM (inactive)
same,GI50,UACC-257,> 100 µM (inactive)
same,GI50,NCI-H23,> 100 µM (inactive)
same,GI50,NCI/ADR-RES,26 µM (inactive)
same,GI50,HT-29,> 100 µM (inactive)
same,GI50,SW-620,24.5 µM (inactive)
same,GI50,MDA-MB-231,> 100 µM (inactive)
same,GI50,SNB-19,> 100 µM (inactive)
same,GI50,MDA-MB-435,> 100 µM (inactive)
same,GI50,M14,32.1 µM (inactive)
same,GI50,Hs-578T,> 100 µM (inactive)
same,GI50,MOLT-4,24.1 µM (inactive)
same,GI50,HCC 2998,> 100 µM (inactive)
same,GI50,OVCAR-8,23.2 µM (inactive)
same,GI50,COLO 205,> 100 µM (inactive)
same,GI50,EKVX,> 100 µM (inactive)
same,GI50,TK-10,56.9 µM (inactive)
same,GI50,SNB-75,> 100 µM (inactive)
same,GI50,SN12C,> 100 µM (inactive)
same,GI50,DU-145,> 100 µM (inactive)
same,GI50,HCT-116,25.1 µM (inactive)
same,GI50,MCF7,44.1 µM (inactive)
same,GI50,BT-549,> 100 µM (inactive)
Oc1cc(F)cc2cccnc12,GI50,K562,0.105 µM (active)
same,GI50,OVCAR-3,0.0975 µM (active)
same,GI50,MDA-N,12.6 µM (inactive)
same,GI50,UO-31,0.652 µM (active)
same,GI50,UACC-62,2.73 µM (inactive)
same,GI50,IGROV-1,0.889 µM (active)
same,GI50,LOX IMVI,0.362 µM (active)
same,GI50,RPMI-8226,0.259 µM (active)
same,GI50,HOP-62,2.56 µM (inactive)
same,GI50,ACHN,0.933 µM (active)
same,GI50,NCI-H522,0.183 µM (active)
same,GI50,KM12,1.3 µM (inactive)
same,GI50,OVCAR-5,3.29 µM (inactive)
same,GI50,SF-295,1.1 µM (active)
same,GI50,SK-OV-3,4.45 µM (inactive)
same,GI50,SK-MEL-2,16.4 µM (inactive)
same,GI50,HOP-92,0.0356 µM (active)
same,GI50,HL-60,0.0887 µM (active)
same,GI50,SK-MEL-5,0.998 µM (active)
same,GI50,CAKI-1,3.96 µM (inactive)
same,GI50,A549,1.02 µM (active)
same,GI50,OVCAR-4,0.435 µM (active)
same,GI50,SF-268,0.218 µM (active)
same,GI50,T47D,1.3 µM (inactive)
same,GI50,786-0,7.29 µM (inactive)
same,GI50,NCI-H226,3.54 µM (inactive)
same,GI50,Malme-3M,0.628 µM (active)
same,GI50,A498,6.58 µM (inactive)
same,GI50,NCI-H460,1.24 µM (inactive)
same,GI50,PC-3,1.27 µM (inactive)
same,GI50,HCT-15,0.25 µM
same,GI50,SR,0.182 µM (active)
same,GI50,CCRF-CEM,0.0778 µM (active)
same,GI50,RXF 393,3.75 µM (inactive)
same,GI50,SK-MEL-28,48 µM (inactive)
same,GI50,SF-539,1.34 µM (inactive)
same,GI50,U-251,0.957 µM (active)
same,GI50,UACC-257,0.402 µM (active)
same,GI50,NCI-H23,1.09 µM (active)
same,GI50,NCI/ADR-RES,0.281 µM (active)
same,GI50,HT-29,4.47 µM (inactive)
same,GI50,SW-620,0.855 µM (active)
same,GI50,MDA-MB-231,1.54 µM (inactive)
same,GI50,SNB-19,5.31 µM (inactive)
same,GI50,MDA-MB-435,2.38 µM (inactive)
same,GI50,M14,1.02 µM (active)
same,GI50,Hs-578T,3.68 µM (inactive)
same,GI50,MOLT-4,0.206 µM (active)
same,GI50,HCC 2998,26.1 µM (inactive)
same,GI50,OVCAR-8,0.324 µM (active)
same,GI50,COLO 205,5.89 µM (inactive)
same,GI50,EKVX,0.418 µM (active)
same,GI50,TK-10,17.9 µM (inactive)
same,GI50,SNB-75,11.8 µM (inactive)
same,GI50,SN12C,1.04 µM (active)
same,GI50,DU-145,5.58 µM (inactive)
same,GI50,HCT-116,1.89 µM (inactive)
same,GI50,MCF7,0.0689 µM (active)
same,GI50,BT-549,0.968 µM (active)
